Source: the supplement of paper PMC10627819

Legend:
S. pneumoniae D39V = assay: Bliss interaction score (quartile over a dose matrix) (fitness difference); higher = more antagonism (negative = synergy)
Summary of the method: (§1)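 Fitness is OD595 at stationary-phase entry relative to the plate's robust no-drug mean, capped at 1. Single-drug fitness was inferred from combinations. The Bliss score is observed minus product-expected fitness, summarised by quartiles over technical, biological and donor/recipient replicates.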

B. subtilis 168 [1] = assay: as above
Summary of the method: as §1

S. aureus DSM 20231 = assay: as above
Summary of the method: as §1

S. aureus Newman = assay: as above
Summary of the method: as §1

B. subtilis 168 [2] = assay: fitness (endpoint OD595 vs no drug) (fraction); higher = more growth
Summary of the method: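 Plates with 384 wells were inoculated at OD595 0.01 using 30 µl of TSB, LB Lennox or CY, or 55 µl for S. pneumoniae. Incubation was at 37 °C, with OD595 measured every 30 min for 14 h. Fitness is the stationary-phase transition optical density over the robust mean of no-drug control wells, after first-reading background subtraction; it is capped at 1.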
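Throughout, for Bliss interaction score (quartile over a dose matrix): first quartile when negative (synergy) and third quartile when positive (antagonism).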

CC[C@H]1OC(=O)[C@H](C)[C@@H](O[C@H]2C[C@@](C)(OC)[C@@H](O)[C@H](C)O2)[C@H](C)[C@@H](O[C@@H]2O[C@H](C)C[C@H](N(C)C)[C@H]2O)[C@](C)(O)C[C@@H](C)CN(C)[C@H](C)[C@@H](O)[C@]1(C)O [Azithromycin] + CCC(C)C1C(=O)NC(=C)C(=O)NC(C(=O)NC(CSCC(C(=O)N1)NC(=O)/C(=C/C)/NC(=O)C(C(C)CC)N)C(=O)NC2C(SCC(NC(=O)CNC(=O)C3CCCN3C2=O)C(=O)NC(CCCCN)C(=O)NC4C(SCC(NC(=O)CNC(=O)C(NC(=O)C(NC(=O)C(NC(=O)CNC4=O)C)CC(C)C)CCSC)C(=O)NC(CC(=O)N)C(=O)NC(CCSC)C(=O)NC(CCCCN)C(=O)NC5C(SCC6C(=O)NC(C(=O)NC(CSC(C(C(=O)N6)NC(=O)C(NC5=O)C)C)C(=O)NC(CO)C(=O)NC(C(C)CC)C(=O)NC(CC7=CN=CN7)C(=O)NC(C(C)C)C(=O)NC(=C)C(=O)NC(CCCCN)C(=O)O)CC8=CN=CN8)C)C)C)CC(C)C [Nisin]
main component drawn
Details | Bliss interaction score
B. subtilis 168 [1] | 0.0397
S. aureus DSM 20231 | -0.195
S. aureus Newman | -0.113
S. pneumoniae D39V | -0.0414

fitness, B. subtilis 168 [2], main component drawn
Details | partner 0.5 µg/mL | partner 1 µg/mL | partner 2 µg/mL
first compound 0.25 µg/mL | 0.904 | 0.837 | 0.724
first compound 0.5 µg/mL | 0.862 | 0.805 | 0.636

fitness, B. subtilis 168 [2], one replicate, main component drawn
Details | partner 1.25 µg/mL | partner 1.6 µg/mL | partner 2.5 µg/mL | partner 3.2 µg/mL | partner 4 µg/mL | partner 5 µg/mL | partner 6.4 µg/mL | partner 8 µg/mL | partner 16 µg/mL
first compound 0.25 µg/mL | – | – | – | – | 0.0321 | – | – | 0.0145 | 0.0145
first compound 0.5 µg/mL | 0.889 | 0.611 | 0.0285 | 0.028 | 0.0372 | 0.0256 | 0.0317 | 0.0317 | 0.0189
first compound 1 µg/mL | 0.844 | 0.038 | 0.415 | 0.0169 | 0.0347 | 0.0235 | 0.0188 | 0.0359 | 0.0271
first compound 2 µg/mL | 0.358 | 0.023 | 0.0636 | 0.0193 | – | 0.0032 | 0.0113 | – | –

CC[C@H]1OC(=O)[C@H](C)[C@@H](O[C@H]2C[C@@](C)(OC)[C@@H](O)[C@H](C)O2)[C@H](C)[C@@H](O[C@@H]2O[C@H](C)C[C@H](N(C)C)[C@H]2O)[C@](C)(O)C[C@@H](C)CN(C)[C@H](C)[C@@H](O)[C@]1(C)O [Azithromycin] + CN(C)C(=O)C(CCN1CCC(O)(c2ccc(Cl)cc2)CC1)(c1ccccc1)c1ccccc1 [Loperamide]
Details | Bliss interaction score
B. subtilis 168 [1] | 0.137
S. aureus DSM 20231 | 0.344
S. aureus Newman | 0.101
S. pneumoniae D39V | 0.131

Details | fitness
B. subtilis 168 [2], first compound 1 µg/mL, partner 50 µg/mL | 0.041

CC[C@H]1OC(=O)[C@H](C)[C@@H](O[C@H]2C[C@@](C)(OC)[C@@H](O)[C@H](C)O2)[C@H](C)[C@@H](O[C@@H]2O[C@H](C)C[C@H](N(C)C)[C@H]2O)[C@](C)(O)C[C@@H](C)CN(C)[C@H](C)[C@@H](O)[C@]1(C)O [Azithromycin] + CO[C@@H]1[C@@H](OC(N)=O)[C@@H](O)[C@H](Oc2ccc3c(O)c(NC(=O)c4ccc(O)c(CC=C(C)C)c4)c(=O)oc3c2C)OC1(C)C [Novobiocin]
Details | Bliss interaction score
B. subtilis 168 [1] | 0.0746
S. aureus DSM 20231 | 0.0496
S. aureus Newman | 0.157
S. pneumoniae D39V | -0.0647

fitness, B. subtilis 168 [2]
Details | partner 0.0125 µg/mL | partner 0.025 µg/mL | partner 0.05 µg/mL | partner 0.1 µg/mL | partner 0.2 µg/mL
first compound 0.25 µg/mL | 0.897 | 0.888 | 0.894 | 0.954 | 0.931
first compound 0.5 µg/mL | 0.867 | 0.814 | 0.868 | 0.865 | 0.878
first compound 1 µg/mL | 0.642 | 0.63 | – | – | –

fitness, B. subtilis 168 [2], one replicate
Details | first compound 0.5 µg/mL | first compound 1 µg/mL | first compound 2 µg/mL
partner 0.125 µg/mL | 0.772 | 0.765 | 0.347
partner 0.25 µg/mL | 0.781 | 0.597 | 0.167
partner 0.5 µg/mL | 0.507 | 0.473 | 0.0776

CC[C@H]1OC(=O)[C@H](C)[C@@H](O[C@H]2C[C@@](C)(OC)[C@@H](O)[C@H](C)O2)[C@H](C)[C@@H](O[C@@H]2O[C@H](C)C[C@H](N(C)C)[C@H]2O)[C@](C)(O)C[C@@H](C)CN(C)[C@H](C)[C@@H](O)[C@]1(C)O [Azithromycin] + C[C@H]1COc2c(N3CCN(C)CC3)c(F)cc3c(=O)c(C(=O)O)cn1c23 [Levofloxacin]
Details | Bliss interaction score
B. subtilis 168 [1] | 0.0413
S. aureus DSM 20231 | 0.0911
S. aureus Newman | 0.0787
S. pneumoniae D39V | 0.0528

fitness, B. subtilis 168 [2]
Details | partner 0.002 µg/mL | partner 0.0039 µg/mL | partner 0.0078 µg/mL | partner 0.0312 µg/mL | partner 0.0625 µg/mL | partner 0.125 µg/mL
first compound 0.25 µg/mL | 0.96 | 0.945 | 0.969 | 0.0317 | 0.0311 | 0.0281
first compound 0.5 µg/mL | 0.848 | 0.808 | 0.862 | 0.0211 | 0.0396 | 0.0302
first compound 1 µg/mL | – | – | – | 0.0198 | 0.0226 | 0.0241

fitness, B. subtilis 168 [2], one replicate
Details | first compound 0.5 µg/mL | first compound 1 µg/mL | first compound 2 µg/mL
partner 0.001 µg/mL | 0.925 | 0.906 | 0.209
partner 0.002 µg/mL | – | – | 0.029
partner 0.0039 µg/mL | – | – | 0.0299

CC[C@H]1OC(=O)[C@H](C)[C@@H](O[C@H]2C[C@@](C)(OC)[C@@H](O)[C@H](C)O2)[C@H](C)[C@@H](O[C@@H]2O[C@H](C)C[C@H](N(C)C)[C@H]2O)[C@](C)(O)C[C@@H](C)CN(C)[C@H](C)[C@@H](O)[C@]1(C)O [Azithromycin] + C[C@H]1c2cccc(O)c2C(=O)C2=C(O)[C@]3(O)C(=O)C(C(N)=O)=C(O)[C@@H](N(C)C)[C@@H]3[C@@H](O)[C@@H]21 [Doxycycline]
Details | Bliss interaction score
B. subtilis 168 [1] | -0.362
S. aureus DSM 20231 | -0.261
S. aureus Newman | -0.153
S. pneumoniae D39V | -0.139

Details | fitness
B. subtilis 168 [2], first compound 0.25 µg/mL, partner 0.02 µg/mL | 0.816

B. subtilis 168 [2], first compound 2 µg/mL, one replicate
Details | fitness
partner 0.02 µg/mL | 0.0856
partner 0.04 µg/mL | 0.0565
partner 0.08 µg/mL | 0.115
